Test system: primary mouse hepatocytes
Assay: Gene expression (Affymetrix Mouse Genome 430 2.0) in primary mouse hepatocytes, true vs false GTX, 24 h and 48 h
Conditions: log2, corrected for vehicle control

## CC(=O)Nc1ccc2c(c1)Cc1ccccc1-2 [2-AAF, 2-Acetylaminofluorene]
24 h average
  Gene expression data AF000969 (Cadps2): −0.5371
  Gene expression data AF022072 (Grb10): 0.5527
  Gene expression data AF065917 (Lif): −0.1242
  Gene expression data AF204959 (Cyp3a25 /// LOC622249): 0.2152
  Gene expression data AF297615 (Ggta1): 0.03187
  Gene expression data AI594683 (Dmn): −0.2452
  Gene expression data AI596632 (Ptprg /// LOC632664): −0.0981
  Gene expression data AI987929 (Ndrg1): 0.8432
  Gene expression data AK004419 (Fbxl17): −0.168
  Gene expression data AK005731 (1700007K13Rik): 0.08277
  Gene expression data AK007766 (1810044A24Rik): 0.01003
  Gene expression data AK007854 (1810053B23Rik): −0.9008
  Gene expression data AK009736 (Gpr137b /// LOC664862 /// LOC673335): −0.00723
  Gene expression data AK010447 (Smyd3): −0.1751
  Gene expression data AK014608 (4632434l11Rik): −0.09823
  Gene expression data AK019979 (2610528E23Rik): 0.3248
  Gene expression data AV095209 (Mthfd1l): 0.4403
  Gene expression data AV141095 (1110033M05Rik): −0.2881
  Gene expression data AV173571 (1700106N22Rik): −0.04133
  Gene expression data AV219418 (Ldhb): −0.3695
  Gene expression data AV223474 (Zdhhc14): −0.4459
  Gene expression data AV298304 (Homez): −0.1831
  Gene expression data AV327248 (Zfp365 /// LOC674611): 0.0668
  Gene expression data AV377066 (9130221J18Rik): −0.6586
  Gene expression data AW240761 (Tbc1d5): −0.0924
  Gene expression data AW543460 (Pard3): −0.3156
  Gene expression data AW543723: 0.1065
  Gene expression data AW986246 (Maoa): 0.01853
  Gene expression data BB027848 (4732466D17Rik): −0.252
  Gene expression data BB043558 (9230114K14Rik): −0.1205
  Gene expression data BB275142 (AW456874): −0.02303
  Gene expression data BB308836 (Ppm1l): −0.1499
  Gene expression data BB318221 (Zdhhc14): −0.411
  Gene expression data BB463610 (4632434l11Rik): −0.3778
  Gene expression data BB526605 (Mipol1): 0.3466
  Gene expression data BB770528 (Rai2): −0.5052
  Gene expression data BB821363 (Scfd2): −0.1216
  Gene expression data BC004827 (Psat1): 0.2797
  Gene expression data BC008626 (Icam1): −0.6353
  Gene expression data BC010462 (BC010462): −0.1475
  Gene expression data BC012247 (Dcxr): −0.08253
  Gene expression data BC012260 (Psmf1): −0.646
  Gene expression data BC015270 (Hist2h3c2): −0.1327
  Gene expression data BC016073 (Cdkal1): −0.1464
  Gene expression data BC016265 (Ube2e2): −0.3984
  Gene expression data BC019882 (Acaa1b): 1.3218
  Gene expression data BC025501 (Aaas): −0.1475
  Gene expression data BC025837 (Sbk1): −0.2976
  Gene expression data BC025915 (Cova1): −0.1568
  Gene expression data BC026422 (Tgm1): −0.1664
  Gene expression data BF719766 (Thyn1): −0.0442
  Gene expression data BG065754 (Ccng1): 0.0569
  Gene expression data BG066903 (Kif16b): −0.2125
  Gene expression data BG069873 (Gnb1l): −0.2747
  Gene expression data BG070887 (Gtdc1): −0.01607
  Gene expression data BG076151 (Ppm1d): −0.1219
  Gene expression data BG261907 (Large): −0.2502
  Gene expression data BI651416 (Cdc42bpg): 0.1552
  Gene expression data BI660702 (Ell3): 0.1219
  Gene expression data BM198879 (Ercc5): −0.2382
  Gene expression data BM230508 (A030007D23Rik): 0.282
  Gene expression data NM_007987 (Fas): 0.06923
  Gene expression data NM_008522 (Ltf): 0.1277
  Gene expression data NM_008576 (Abcc1): 0.3321
  Gene expression data NM_011176 (St14): −0.03387
  Gene expression data NM_011316 (Saa4): −0.3157
  Gene expression data NM_012006 (Acot1): 1.9403
  Gene expression data NM_013866 (Zfp385): −0.136
  Gene expression data NM_018770 (Igsf4a): −0.2065
  Gene expression data NM_021451 (Pmaip1): −0.7054
  Gene expression data NM_025770 (Atg10): 0.01663
  Gene expression data NM_028803 (Gbe1): −0.2716
  Gene expression data NM_030697 (Ankrd47): −0.252
  Gene expression data NM_053168 (Trim11): −0.2676
  Gene expression data NM_134188 (Acot2): 0.597
  Gene expression data Y15910 (Diap2): −0.366
48 h
  Gene expression AA561726 average: −0.7419
  Gene expression AF000969 average: −0.8319
  Gene expression AF022072 average: 0.0482
  Gene expression AF033112 average: −0.03947
  Gene expression AF055573 average: −0.2895
  Gene expression AF069954 average: 0.3518
  Gene expression AF297615 average: −0.6791
  Gene expression AF335325 average: −0.3088
  Gene expression AI594683 average: −0.05213
  Gene expression AI747296 average: −0.5003
  Gene expression AK005731 average: 0.01113
  Gene expression AK007854 average: 1.4303
  Gene expression AK010447 average: −0.3256
  Gene expression AK010738 average: 0.1851
  Gene expression AK014608 average: −0.01987
  Gene expression AK017734 average: 0.0451
  Gene expression AK018383 average: 0.2303
  Gene expression AK019979 average: −0.5099
  Gene expression AV095209 average: −0.3718
  Gene expression AV141095 average: −0.5829
  Gene expression AV173869 average: −0.3782
  Gene expression AV216768 average: −0.6814
  Gene expression AV219418 average: 0.7839
  Gene expression AV221299 average: 0.6759
  Gene expression AV246296 average: −0.54
  Gene expression AV251625 average: 0.07103
  Gene expression AV254764 average: −0.006467
  Gene expression AV327248 average: −0.09177
  Gene expression BB009155 average: −0.5851
  Gene expression BB027848 average: 0.5378
  Gene expression BB043558 average: 0.196
  Gene expression BB046347 average: 0.2178
  Gene expression BB140436 average: 0.4693
  Gene expression BB204486 average: −0.6445
  Gene expression BB223872 average: 0.3216
  Gene expression BB246912 average: −0.2264
  Gene expression BB275142 average: 0.1102
  Gene expression BB458460 average: −0.3368
  Gene expression BB463610 average: 0.0872
  Gene expression BB730977 average: −0.9937
  Gene expression BB743970 average: 0.7664
  Gene expression BB770528 average: −0.5594
  Gene expression BB781615 average: −0.1164
  Gene expression BC003284 average: 0.02563
  Gene expression BC004827 average: −0.2015
  Gene expression BC005552 average: −0.126
  Gene expression BC006713 average: 0.4411
  Gene expression BC010318 average: −0.02213
  Gene expression BC012247 average: 0.6286
  Gene expression BC012955 average: 0.05073
  Gene expression BC013893 average: 0.4936
  Gene expression BC017615 average: −0.5229
  Gene expression BC019379 average: −1.215
  Gene expression BC019882 average: 1.577
  Gene expression BC021352 average: −1.127
  Gene expression BC022148 average: 0.456
  Gene expression BC025169 average: −0.2222
  Gene expression BC026131 average: −0.3489
  Gene expression BC027026 average: 0.8063
  Gene expression BC027121 average: −0.1341
  Gene expression BC027185 average: 0.4588
  Gene expression BE956581 average: 0.1808
  Gene expression BF719766 average: 0.2652
  Gene expression BG065754 average: 0.3738
  Gene expression BG066491 average: −1.541
  Gene expression BG076151 average: −0.3358
  Gene expression BG076333 average: −0.1306
  Gene expression BG797099 average: −0.06173
  Gene expression BG967046 average: 0.0391
  Gene expression BI651416 average: 0.3502
  Gene expression BI966443 average: 0.1201
  Gene expression BM198879 average: −0.2887
  Gene expression BM200015 average: 0.5127
  Gene expression BM230508 average: 0.0745
  Gene expression BM936480 average: 0.9169
  Gene expression BQ174991 average: −0.3426
  Gene expression L21027 average: −0.729
  Gene expression NM_007556 average: 0.02703
  Gene expression NM_007980 average: 1.503
  Gene expression NM_007987 average: 0.516
  Gene expression NM_008522 average: 0.1967
  Gene expression NM_008935 average: 0.02783
  Gene expression NM_009897 average: −0.003733
  Gene expression NM_011075 average: −0.5522
  Gene expression NM_011176 average: −0.2632
  Gene expression NM_011316 average: 0.4369
  Gene expression NM_012006 average: 2.771
  Gene expression NM_013642 average: −0.6535
  Gene expression NM_013738 average: −0.2396
  Gene expression NM_013929 average: −0.04163
  Gene expression NM_018881 average: 0.9061
  Gene expression NM_019738 average: −0.193
  Gene expression NM_030697 average: −0.4783
  Gene expression NM_053122 average: −0.106
  Gene expression NM_134147 average: 0.04213
  Gene expression NM_134188 average: 0.9088
  Gene expression X62701 average: −0.356

From patent publication US20120122727A1, “IN VITRO METHOD FOR PREDICTING WHETHER A COMPOUND IS GENOTOXIC IN VIVO” (priority 2009, published 2012)
